Consider five compounds from PMC4847155 (Biochemical Journal, 2016).

Where a name gives a salt, the structure may show the parent alone. Read-outs that look alike come from different tables or passages of the source. Where only a bound is given, the exact number is not on record here.

The EC50 is the concentration at which the effect is half-maximal.

Data set [1] has as its system Wt BMK cells. Kind of data set: Live-cell imaging of cell death. The conditions noted are these: for effect on apoptosis of Wt compared with DKO cells (annexin V staining): Wt versus DKO BMK cells, among the five compounds. It counts as cell-based, mouse.
Data set [2] concerns Bax−/− Bak−/− (DKO) BMK cells. The data set is described as follows: Live-cell imaging of cell death. In kind it is cell-based, mouse. The conditions noted are these: 24 h.
In data set [3] the target is T1, Bax (Homo sapiens, UniProt Q07812). It counts as biochemical. The note with it: 100 nM Bax, 10 μM compound or 20 nM cBid/Bim, no membranes, DSS.
T1 sequence (Q07812 whole entry): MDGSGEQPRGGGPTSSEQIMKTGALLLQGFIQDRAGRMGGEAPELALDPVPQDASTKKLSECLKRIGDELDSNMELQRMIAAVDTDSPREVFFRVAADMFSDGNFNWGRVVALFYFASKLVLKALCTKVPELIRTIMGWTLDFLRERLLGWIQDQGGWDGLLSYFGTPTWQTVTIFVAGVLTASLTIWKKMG
The target of data set [4] is C126A Bax (Homo sapiens, UniProt Q07812, C126A). The note with it: mitochondria, 20 nM Bax, 10 μM compound.
C126A Bax, sequence (Q07812 whole entry C126A): as the sequence (Q07812 whole entry) above, with C126A counted along it
In data set [5] the target is T1, Bax. The data set is described as follows: biochemical. It counts as biochemical.
Data set [6] addresses T1, Bax. It counts as biochemical. The note with it: 100 nM Bax, 10 μM compound, DSS.
For data set [7], the target named is T1, Bax. Kind of data set: biochemical.

With `O=c1c2ccccc2[se]n1-c1ccccc1` [Ebselen, ebselen], the toxicity to cells entry is on record as “not toxic” in data set [1] (Wt BMK cells, 24 h) and “not toxic” in data set [2] (DKO BMK cells). Also, the “formation of dimers and higher-order Bax oligomers in solution” value in data set [3] was “pronounced effects”. The “activation of C126A Bax” value in data set [4] was “almost completely resistant”.
On to `CC(=O)[O][Hg][c]1ccccc1` [PMA, phenylmercuric acetate], for which the half-maximal effective concentration (EC50) in data set [5] (read-out: EC50 in mitochondria, 20 nM Bax, mitochondria from Bax−/− Bak−/− BMK cells, Smac–mCherry release) amounted to 1.3 µM. For the same compound, the “effect on apoptosis of Wt compared with DKO cells (annexin V staining)” value in data set [1] is “most pronounced effects”. The “Bax oligomerization (higher-order complexes) in liposomes” value in data set [6] is on record as “most pronounced effects”.
Take `CC1=CC(=O)c2c(O)cccc2C1=O` [Plumbagin, plumbagin]: the values for the half-maximal effective concentration (EC50) in data set [7] and in data set [5] were over 3 µM and 1.5 µM, respectively. The “effect on apoptosis of Wt compared with DKO cells (annexin V staining)” value in data set [1] is listed as “most pronounced effects”.
In the case of `CC(C)N(CCC(=O)c1ccc2ccccc2c1)Cc1ccccc1` [ZM, ZM39923 hydrochloride], the EC50 was over 3 µM in data set [7]; 3.5 µM in data set [5]; about 10 µM in data set [1] (Mus musculus, 24 h, read-out: EC50 of cell kill); about 10 µM in data set [2] (Mus musculus, read-out: EC50 of cell kill). Also, the “activation of C126A Bax” value in data set [4] is on record as “almost completely resistant”.
Consider “Bim: pro-apoptotic BH3 protein, recombinant, positive control for Bax oligomerization”, for which the “formation of dimers and higher-order Bax oligomers in solution” value in data set [3] is listed as “no effects”.
